Data set [1] relates to Escherichia coli K-12 JR 66/W 677. Description: Minimal inhibitory concentration, agar dilution streak method. The data set is classed as cell-based. To be noted: Escherichia coli, 18 h, read-out: minimum inhibitory concentrations. How it is done: (§1) *Agar Agar dilution streak method (nutrient agar, 37° C, 18 hours)
(§2) *Agar dilution streak method (nutrient agar, 37° C, 18 hours).
A general note: In agar dilution, organisms are placed on agar that contains the substance at set levels.

Data set [2] deals with Escherichia coli K-12 LA 290 R 55. The description is as above. The format is cell-based. To be noted: 18 h, read-out: minimum inhibitory concentrations. How it is done: as §1, §2
The test system of data set [3] is Escherichia coli K-12 ML 1629. Described as above. The format is cell-based. To be noted: K12ML1629, nutrient agar, 37° C, 18 hours, drug-resistant strain, read-out: minimum inhibitory concentrations. Here is the method:
as §1, §2

The subject of data set [4] is Pseudomonas aeruginosa GN 315. The data set is described as above. The data set is classed as cell-based. To be noted: GN315, nutrient agar, 37° C, 18 hours, drug-resistant strain, read-out: minimum inhibitory concentrations. How it is done:
as §1, §2

Data set [5] has as its system Escherichia coli K-12 ML 1410. The data set is described as above. The format is cell-based. To be noted: K12ML1410, nutrient agar, 37° C, 18 hours, read-out: minimum inhibitory concentrations. Here is the method: as §1, §2
The test system of data set [6] is Escherichia coli K-12 W 677. The data set is described as above. The format is cell-based. As to conditions: K12W677, nutrient agar, 37° C, 18 hours, read-out: minimum inhibitory concentrations. How it is done:
as §1, §2

In data set [7] the test system is Pseudomonas aeruginosa A 3. The description is as above. The format is cell-based. To be noted: A3, nutrient agar, 37° C, 18 hours, read-out: minimum inhibitory concentrations. How it is done: as §1, §2
The test system of data set [8] is Pseudomonas aeruginosa No.12. The description is as above. The format is cell-based. To be noted: nutrient agar, 37° C, 18 hours, read-out: minimum inhibitory concentrations. Here is the method:
as §1, §2

Data set [9] concerns Staphylococcus aureus FDA 209P. Described as above. The format is cell-based. As to conditions: FDA209P, nutrient agar, 37° C, 18 hours, read-out: minimum inhibitory concentrations. How it is done: as §1, §2
For data set [10], the system named is gram-positive and gram-negative bacteria. The experiment in a line: Antibacterial activity (in words). The data set is classed as cell-based. To be noted: for antibacterial activity compared with parent or reference substance: sensitive (and resistant) bacteria; for antibacterial activity: various gram-positive and gram-negative bacteria, including resistant strains. Here is the method: (§3) [α]D^22 + 38°, (c 0.85, water).

The nature of another data set: in vivo. To be noted: mouse, iv.
Another data set has as its system mice. The experiment in a line: Acute intravenous toxicity (LD50) in mice. To be noted: in words.
Data set [11] has as its system Pseudomonas aeruginosa 99. The experiment in a line: Minimal inhibitory concentration, agar dilution streak method. As to conditions: nutrient agar, 37° C, 18 hours, read-out: minimum inhibitory concentrations. The format is cell-based. How it is done:
as §3, §1, §2

Data set [12] relates to Escherichia coli K-12 LA 290 R 56. The description is as above. The data set is classed as cell-based. As to conditions: 18 h, read-out: minimum inhibitory concentrations. How it is done:
as §1, §2

Data set [13] deals with Escherichia coli K-12 LA 290 R 64. Described as above. To be noted: nutrient agar, 37° C, 18 hours, read-out: minimum inhibitory concentrations. The data set is classed as cell-based. How it is done:
as §1, §2

In data set [14] the test system is Escherichia coli K-12 ML 1410 R 81. Described as above. The format is cell-based. To be noted: 18 h, read-out: minimum inhibitory concentrations. How it is done:
as §1, §2

Data set [15] concerns Escherichia coli K-12 ML 1630. Described as above. As to conditions: K12ML1630, nutrient agar, 37° C, 18 hours, read-out: minimum inhibitory concentrations. The format is cell-based. How it is done:
as §1, §2

For the next data set, the system named is Escherichia coli K-12. Described as above. The format is cell-based. To be noted: K12, nutrient agar, 37° C, 18 hours, read-out: minimum inhibitory concentrations. How it is done:
as §1, §2

Data set [16] relates to Pseudomonas aeruginosa TI-13. Described as above. The data set is classed as cell-based. As to conditions: TI13, nutrient agar, 37° C, 18 hours, read-out: minimum inhibitory concentrations. How it is done: as §1, §2

Values after ≈ are worked out from the molar mass of the structure shown.

As to `CNC[C@H]1O[C@H](O[C@H]2[C@H](O)[C@@H](O[C@H]3O[C@H](CO)[C@@H](O)[C@H](N)[C@H]3O)[C@H](N)C[C@@H]2N)[C@H](N)C[C@@H]1O` [3'-deoxy-6'-N-methylkanamycin B], the MIC in [1] is 50 µg/mL (≈ 104 µM); in data set [2] it was 50 µg/mL (≈ 104 µM); in data set [3] it was 1.56 µg/mL (≈ 3.24 µM); in data set [4] it was 6.25 µg/mL (≈ 13 µM).

In the case of `NC[C@H]1O[C@H](O[C@H]2[C@H](O)[C@@H](O[C@H]3O[C@H](CO)[C@@H](O)[C@H](N)[C@H]3O)[C@H](N)C[C@@H]2N)[C@H](N)C[C@@H]1O` [3'-deoxykanamycin B], the MIC in data set [1] worked out at 50 µg/mL (≈ 107 µM); in data set [2], 50 µg/mL (≈ 107 µM); in [3], 0.78 µg/mL (≈ 1.67 µM); in [4], 100 µg/mL (≈ 214 µM).

On to `NC[C@H]1O[C@H](O[C@H]2[C@H](O[C@@H]3O[C@H](CO)[C@@H](O)[C@H]3O)[C@@H](O)[C@H](N)C[C@@H]2N)[C@H](N)C[C@@H]1O` [3'-deoxyribostamycin], for which the MIC in data set [1], in data set [2], in data set [3] and in data set [4] was above 100 µg/mL each time.

A word on the LD50: it is the dose expected to kill half of the subjects tested. On to `NCC[C@H](O)C(=O)N[C@@H]1C[C@H](N)[C@@H](O[C@H]2O[C@H](CN)[C@@H](O)C[C@H]2N)[C@H](O)[C@H]1O[C@H]1O[C@H](CO)[C@@H](O)[C@H](N)[C@H]1O` [AHB-deoxykanamycin B, 1-N-[(S)-4-amino-2-hydroxybutyryl]-3'-deoxykanamycin B], for which the MIC in [1] was 3.12 µg/mL (≈ 5.49 µM); in data set [2], 0.78 µg/mL (≈ 1.37 µM); in data set [5], 0.78 µg/mL (≈ 1.37 µM); in data set [3] it was 0.78 µg/mL (≈ 1.37 µM); in data set [6], 1.56 µg/mL (≈ 2.74 µM); in data set [7], 0.78 µg/mL (≈ 1.37 µM). Besides, the MIC was 50 µg/mL (≈ 87.9 µM) in data set [4], 0.78 µg/mL (≈ 1.37 µM) in [8] and 0.78 µg/mL (≈ 1.37 µM) in data set [9]. For the same compound, the “antibacterial activity compared with parent or reference substance” value in data set [10] was “antibacterial activity as high as that of their parent substances”. Moreover, the antibacterial activity result in data set [10] is “high antibacterial activity against the kanamycin-resistant strains”. The compound also displayed an LD50 in “in vivo” above 100 mg/kg. Also, in the data set with mice, the toxicity entry is listed as “toxicity as low as that of their parent substances”.

On to `NCC[C@H](O)C(=O)N[C@@H]1C[C@H](N)[C@@H](O[C@H]2O[C@H](CN)[C@@H](O)C[C@H]2N)[C@H](O)[C@H]1O` [AHB-deoxyneamine, 1-N-[(S)-4-amino-2-hydroxybutyryl]-3'-deoxyneamine], for which the MIC in [1], in [2], in data set [5], in data set [3], in data set [6] and in data set [7] was 6.25 µg/mL (≈ 15.3 µM) in each case. The results for the MIC in data set [4], in data set [8] and in data set [9] were above 100 µg/mL, 6.25 µg/mL (≈ 15.3 µM) and 3.12 µg/mL (≈ 7.66 µM), respectively. The “antibacterial activity compared with parent or reference substance” value in data set [10] was “antibacterial activity as high as that of their parent substances”. Further, the antibacterial activity entry in data set [10] is “high antibacterial activity against the kanamycin-resistant strains”. Moreover, in the data set “in vivo”, the LD50 was above 100 mg/kg. In addition, in the data set on mice, the toxicity result is listed as “toxicity as low as that of their parent substances”.

As to `NCC[C@H](O)C(=O)N[C@@H]1C[C@H](N)[C@@H](O[C@H]2O[C@H](CN)[C@@H](O)C[C@H]2N)[C@H](O[C@@H]2O[C@H](CO)[C@@H](O)[C@H]2O)[C@H]1O` [AHB-deoxyribostamycin, 1-N-[(S)-4-amino-2-hydroxybutyryl]-3'-deoxyribostamycin], the MIC was 3.12 µg/mL (≈ 5.78 µM) in data set [1]; 1.56 µg/mL (≈ 2.89 µM) in [2]; 0.78 µg/mL (≈ 1.45 µM) in data set [5]; 1.56 µg/mL (≈ 2.89 µM) in data set [3]; 0.78 µg/mL (≈ 1.45 µM) in [6]; 1.56 µg/mL (≈ 2.89 µM) in data set [7]. In addition, the MIC is above 100 µg/mL in data set [4], 3.12 µg/mL (≈ 5.78 µM) in data set [8] and 1.56 µg/mL (≈ 2.89 µM) in data set [9]. In addition, the “antibacterial activity compared with parent or reference substance” value in data set [10] is listed as “antibacterial activity as high as that of their parent substances”. Further, in data set [10], the antibacterial activity result is on record as “high antibacterial activity against the kanamycin-resistant strains”. The compound further came in with an LD50 in the data set “in vivo” above 100 mg/kg. Moreover, in the data set on mice, the toxicity result was “toxicity as low as that of their parent substances”.

In the case of `NCC[C@H](O)C(=O)N[C@@H]1C[C@H](N)[C@@H](O[C@H]2O[C@H](CN)CC[C@H]2N)[C@H](O)[C@H]1O[C@H]1O[C@H](CO)[C@@H](O)[C@H](N)[C@H]1O` [AHB-dideoxykanamycin B, 1-N-[(S)-4-amino-2-hydroxy-n-butyryl]-3',4'-dideoxykanamycin B], the MIC came out at 12.5 µg/mL (≈ 22.6 µM) in data set [11]; 1.56 µg/mL (≈ 2.82 µM) in [1]; 0.78 µg/mL (≈ 1.41 µM) in data set [2]; 0.39 µg/mL (≈ 0.706 µM) in [12]; 0.78 µg/mL (≈ 1.41 µM) in data set [13]; 1.56 µg/mL (≈ 2.82 µM) in data set [14]. Besides, the MIC in data set [5] was 0.78 µg/mL (≈ 1.41 µM); in data set [3], 0.78 µg/mL (≈ 1.41 µM); in data set [15], 0.78 µg/mL (≈ 1.41 µM); in data set [6], 0.39 µg/mL (≈ 0.706 µM); with Escherichia coli K-12 it was 0.78 µg/mL (≈ 1.41 µM); in data set [7] it was 3.12 µg/mL (≈ 5.65 µM). Also, the MIC in data set [8] amounted to 1.56 µg/mL (≈ 2.82 µM); in data set [16], 3.12 µg/mL (≈ 5.65 µM); in [9] it was 0.78 µg/mL (≈ 1.41 µM). The “antibacterial activity compared with parent or reference substance” value in data set [10] was “stronger antibacterial activity than those of kanamycin A and 3',4'-dideoxykanamycin B”. Moreover, the antibacterial activity entry in [10] is “high antibacterial activity against drug-resistant strains such as Staphylococcus aureus, Escherichia coli and Pseudomonas aeruginosa strains which are resistant to kanamycin and DKB”. This compound had an LD50 in the data set “in vivo” above 150 mg/kg. For the same compound, in the data set with mice, the toxicity result was “toxicity as low as that of kanamycin”.

On to `CNC[C@H]1O[C@H](O[C@H]2[C@H](O)[C@@H](O[C@H]3O[C@H](CO)[C@@H](O)[C@H](N)[C@H]3O)[C@H](NC(=O)[C@@H](O)CCN)C[C@@H]2N)[C@H](N)C[C@@H]1O` [AHB-methyldeoxykanamycin B, 1-N-[(S)-4-amino-2-hydroxybutyryl]-3'-deoxy-6'-N-methylkanamycin B], for which the MIC in [1] came out at 3.12 µg/mL (≈ 5.35 µM); in data set [2], 0.78 µg/mL (≈ 1.34 µM); in [5], 0.78 µg/mL (≈ 1.34 µM); in data set [3] it was 0.78 µg/mL (≈ 1.34 µM); in [6] it was 3.12 µg/mL (≈ 5.35 µM); in [7], 0.78 µg/mL (≈ 1.34 µM). The MIC in [4] is 6.25 µg/mL (≈ 10.7 µM); in data set [8] it was 0.78 µg/mL (≈ 1.34 µM); in data set [9] it was 0.78 µg/mL (≈ 1.34 µM). For the same compound, the “antibacterial activity compared with parent or reference substance” value in [10] is “antibacterial activity as high as that of their parent substances”. Moreover, in data set [10], the antibacterial activity result is “high antibacterial activity against the kanamycin-resistant strains”. For the same compound, in the data set “in vivo”, the LD50 is above 100 mg/kg. Further, the toxicity result in the data set on mice is recorded as “toxicity as low as that of their parent substances”.

The record behind these values is patent US4107424A, “1-N-[(S)-α-hydroxy-ω-aminoacyl] derivatives of 3',4'-dideoxykanamycin B and 3'-deoxykanamycin B antibiotics” (Zaidan Hojin Biseibutsu Kagaku Kenkyu Kai, priority 1972, dated 1978).
